The text below walks through data of US20110039857A1, “PIPERIDINE AND PYROOLIDINE COMPOUNDS” (priority 2008, published 2011).

The structures appear in SMILES notation. pIC50: −log10 of the molar value.

One assay addresses T1, human orexin-1 receptor (Homo sapiens, UniProt O43613).
T1 construct: expressed in transfected cells; host or cells: CHO (Chinese hamster ovary) cells under G418 selection
T1 sequence (O43613 1-425): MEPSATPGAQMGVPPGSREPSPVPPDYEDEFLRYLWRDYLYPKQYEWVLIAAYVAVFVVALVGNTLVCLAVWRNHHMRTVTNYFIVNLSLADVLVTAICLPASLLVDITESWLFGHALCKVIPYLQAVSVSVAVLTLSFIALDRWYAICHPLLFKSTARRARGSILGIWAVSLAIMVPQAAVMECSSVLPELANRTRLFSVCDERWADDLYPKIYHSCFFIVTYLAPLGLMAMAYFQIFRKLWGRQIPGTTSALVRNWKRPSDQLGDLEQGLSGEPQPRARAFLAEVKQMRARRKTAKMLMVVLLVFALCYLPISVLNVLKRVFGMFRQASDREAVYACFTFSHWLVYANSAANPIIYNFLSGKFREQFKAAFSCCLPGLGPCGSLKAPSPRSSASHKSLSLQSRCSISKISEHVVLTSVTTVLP
Description: Intracellular calcium measurements (FLIPR), orexin receptor antagonistic activity. The assay is classed as cell-based. The settings on record: CHO cells expressing human orexin-1 receptor; agonist 3 nM orexin-A; read-out: OX1 IC50. As for the experimental part: (§1) The orexin receptor antagonistic activity of the compounds of formula (I) is determined in accordance with the following experimental method.
(§2) Intracellular Calcium Measurements:
(§3) Chinese hamster ovary (CHO) cells expressing the human orexin-1 receptor and the human orexin-2 receptor, respectively, are grown in culture medium (Ham F-12 with L-Glutamine) containing 300 μg/ml G418, 100 U/ml penicillin, 100 μg/ml streptomycin and 10% heat inactivated fetal calf serum (FCS). The cells are seeded at 20′000 cells/well into 384-well black clear bottom sterile plates (Greiner). The seeded plates are incubated overnight at 37° C. in 5% CO2.
(§4) Human orexin-A as an agonist is prepared as 1 mM stock solution in MeOH: water (1:1), diluted in HBSS containing 0.1% bovine serum albumin (BSA), NaHCO3: 0.375g/l and 20 mM HEPES for use in the assay at a final concentration of 3 nM.
(§5) Antagonists are prepared as 10 mM stock solution in DMSO, then diluted in 384-well plates using DMSO followed by a transfer of the dilutions into in HBSS containing 0.1% bovine serum albumin (BSA), NaHCO3: 0.375g/l and 20 mM HEPES. On the day of the assay, 50 μl of staining buffer (HBSS containing 1% FCS, 20 mM HEPES, NaHCO3: 0.375g/l, 5 mM probenecid (Sigma) and 3 μM of the fluorescent calcium indicator fluo-4 AM (1 mM stock solution in DMSO, containing 10% pluronic) is added to each well. The 384-well cell-plates are incubated for 50 min at 37° C. in 5% CO2 followed by equilibration at RT for 30-120 min before measurement.
(§6) Within the Fluorescent Imaging Plate Reader (FLIPR, Molecular Devices), antagonists are added to the plate in a volume of 10 μl/well, incubated for 10 min and finally 10 μl/well of agonist is added. Fluorescence is measured for each well at 1 second intervals, and the height of each fluorescence peak is compared to the height of the fluorescence peak induced by 3 nM orexin-A with vehicle in place of antagonist. For each antagonist, the IC50 value (the concentration of compound needed to inhibit 50% of the agonistic response) is determined.

The target of another assay is T2, human orexin-2 receptor (Homo sapiens, UniProt O43614).
T2 construct: expressed in transfected cells; host or cells: CHO (Chinese hamster ovary) cells under G418 selection
T2 sequence (O43614 1-444): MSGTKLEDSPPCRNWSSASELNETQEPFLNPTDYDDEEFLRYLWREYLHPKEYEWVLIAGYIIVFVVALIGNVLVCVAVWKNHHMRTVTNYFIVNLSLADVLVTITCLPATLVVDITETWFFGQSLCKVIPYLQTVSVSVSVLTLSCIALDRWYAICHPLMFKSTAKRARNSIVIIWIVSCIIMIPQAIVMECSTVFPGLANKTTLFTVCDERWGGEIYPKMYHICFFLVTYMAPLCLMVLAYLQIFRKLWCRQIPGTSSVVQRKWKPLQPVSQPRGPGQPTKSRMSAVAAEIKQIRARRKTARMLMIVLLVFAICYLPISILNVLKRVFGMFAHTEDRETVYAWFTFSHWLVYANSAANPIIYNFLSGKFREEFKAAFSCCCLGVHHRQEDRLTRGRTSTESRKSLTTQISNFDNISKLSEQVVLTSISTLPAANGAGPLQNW
Described as above. Format: cell-based. The settings on record: CHO cells expressing human orexin-2 receptor; agonist 3 nM orexin-A; read-out: OX2 IC50. The method, then:
as §1, §2, §3, §4, §5, §6

With `Cc1ccc(-c2ccccc2C(=O)N2CCC[C@@H](Nc3nccc(C(F)(F)F)n3)C2)cc1C` [Example 1, (R)-(3′,4′-Dimethyl-biphenyl-2-yl)-[3-(4-trifluoromethyl-pyrimidin-2-ylamino)-piperidin-1-yl]-methanone], the negative logarithm of the IC50 (pIC50) at human orexin-1 receptor is 7.24; at human orexin-2 receptor it was 7.37.

On to `COc1cc(OC)nc(N[C@@H]2CCCN(C(=O)c3ccccc3-c3ccc(C)c(C)c3)C2)n1` [Example 2, (R)-[3-(4,6-Dimethoxy-pyrimidin-2-ylamino)-piperidin-1-yl]-(3′,4′-dimethyl-biphenyl-2-yl)-methanone], for which the pIC50 is 7.60 on human orexin-1 receptor and 8.00 on human orexin-2 receptor.

`Cc1ccc(-c2ccccc2C(=O)N2CCC[C@@H](Nc3cnc4ccccc4n3)C2)cc1C` [Example 6, (R)-(3′,4′-Dimethyl-biphenyl-2-yl)-[3-(quinoxalin-2-ylamino)-piperidin-1-yl]-methanone]: the results for the pIC50 on human orexin-1 receptor and at human orexin-2 receptor were 7.89 and 7.96, respectively.

Turning to `Cc1cccc(-c2ccccc2C(=O)N2CCC[C@@H](NC(=O)c3nn(C)c4ccccc34)C2)c1` [Example 34, (R)-1-Methyl-1H-indazole-3-carboxylic acid[1-(3′-methyl-biphenyl-2-carbonyl)-piperidin-3-yl]-amide], the pIC50 is 7.48 at human orexin-1 receptor and 7.82 on human orexin-2 receptor.

Regarding `Cc1ccc(-c2ccccc2C(=O)N2CCC[C@@H](NC(=O)c3cn(C)c4ccccc34)C2)cc1C` [Example 41, (R)-1-Methyl-1H-indole-3-carboxylic acid[1-(3′,4′-dimethyl-biphenyl-2-carbonyl)-piperidin-3-yl]-amide], the pIC50 is 7.49 at human orexin-1 receptor and 7.60 on human orexin-2 receptor.

Usually pIC50 stands for the negative decadic logarithm of the IC50, by convention in mol/L.
